Results from patent US7547696B2, “Aminoquinoline derivatives and their use as adenosine A3 ligands” (sanofi-aventis, priority 2003, dated 2009).
Where a name gives a salt, the structure may show the parent alone.

SMILES	melting point
CNc1ccc2nc(NC(=O)c3ccc(OC)cc3)c(C#N)c(NCc3ccccc3)c2c1 [Example 9, N-{4-(benzylamino)-3-cyano-6-(methylamino)quinolin-2-yl}-4-methoxybenzamide]	237 to 240 °C
COc1ccc(C(=O)Nc2nc3ccc(NC=O)cc3c(NCc3cccs3)c2C#N)cc1 [Example 10, N-{3-Cyano-6-(formylamino)-4-[(2-thienylmethyl)amino]quinolin-2-yl]-4-methoxybenzamide]	223 to 226 °C
COc1ccc(C(=O)Nc2nc3ccc(NS(=O)(=O)O)cc3c(NCc3ccccc3)c2C#N)cc1 (as salt: ammonium) [Example 11, {4-(Benzylamino)-3-cyano-2-[(4-methoxybenzoyl)amino]quinolin-6-yl}sulfamic acid]	220 to 222 °C
COc1ccc(C(=O)Nc2nc3ccc(N)cc3c(NCc3ccccc3)c2C#N)cc1 [Example 7, N-[6-amino-4-(benzylamino)-3-cyanoquinolin-2-yl]-4-methoxybenzamide]	228 to 230 °C
